The test system of test [1] is choline oxidase derived from B. album KY 4319. Put plainly: Substrate specificity of choline oxidase. It is filed as biochemical, Brevibacterium album. The following applies: enzyme 1.5 U/ml; activity on choline chloride defined as 100. As for the experimental part:
(§1) The activity of choline oxidase in the experimental examples and the following examples is determined by oxidizing choline with choline oxidase to produce hydrogen peroxide, decomposing hydrogen peroxide with peroxidase in the presence of phenol and 4-aminoantipyrine to produce the pigment, and measuring the absorbancy of the pigment solution as described below.
(§2) Choline oxidase is dissolved in 0.05 mol/L Tris buffer having a pH of 8.0 to make up a specific concentration (1.5 and 0.4 U/ml respectively in case of choline oxidase derived from KY 4319 and KY 3505 strains). The solutions are then subjected to the same determination of choline oxidase as described above except that the various substances other than choline chloride shown in Table 3 are used as a substrate. The relative activities on the various substrates are calculated by defining the activity on choline chloride as 100.

For test [2], the system named is choline oxidase derived from C. murisepticum KY 3505. Put plainly: Substrate specificity of choline oxidase. It is filed as biochemical, Corynebacterium murisepticum. The following applies: enzyme 0.4 U/ml; activity on choline chloride defined as 100. As for the experimental part:
as §1, §2

The subject of test [3] is choline oxidase derived from Brevibacterium album KY 4319. Conditions: for oxygen consumed per 1 mol of substrate (concluded stoichiometry): conclusion from Table 3; for Amount of O2 uptake [B]: 37° C., pH 8.0.
Protocol: (§3) In the following Experiment (1) and (2), choline oxidase, derived from Brevibacterium album KY 4319 is used.
Then, 0.5 ml of 0.05 mol/L Tris buffer (pH 8.0) containing 1.5 U/ml of choline oxidase is put in the side arm, and reaction is carried out at 37° C. During the reaction, the amount of oxygen uptake (volume) is measured at regular intervals of time. The reaction is completed in 30-40 minutes.
For test [4] the test system is unchanged. The following applies: for hydrogen peroxide produced from 1 mol of substrate (concluded stoichiometry): conclusion from Table 4; for Amount of hydrogen peroxide [B']: 37° C., 20 minutes, pH 8.0.
Protocol: as §3
In this experiment, 0.05 mol/L Tris buffer (pH 8.0) containing 0.001 mol/L of 4-aminoantripyrine, 0.001 mol/L of phenol and 50 mg/L of peroxidase is used as a color-forming liquid. […] The absorbancy of the reaction mixture is measured at 500 nm. The amount of hydrogen peroxide produced is calculated based on the measured value. The ratio of the amount of the hydrogen peroxide produced (μmol) to the amount of the charged substrate (μmol) is shown in Table 4.
For test [5], the system named is Corynebacterium murisepticum KY 3505. As for the experimental part:
as §1
In this experimental example, Brevibacterium album KY 4319 and Corynebacterium murisepticum KY 3505 are used. 10 ml portions of a nutrient medium having the following composition are poured into 70 ml-test tubes and sterilized at 120° C. for 15 minutes.
One loopful of the above strains are separately inoculated into the medium in the test tubes, and culturing is carried out with shaking at 30° C. for […].
After the completion of culturing, each of the culture liquors is subjected to centrifugation. The resultant microbial cells are suspended in 10 ml of 0.05 mol/L Tris buffer having a pH of 8.0 and disrupted by ultrasonic generator. The resultant mixture is subjected to centrifugation and choline oxidase activity of the supernatant is measured.

The subject of test [6] is Brevibacterium album KY 4319.
Protocol: A 0.05 mol/L Tris buffer solution (pH 8.0) containing 0.01 mol/L of 4-aminoantipyrine, 0.01 mol/L of phenol and 5000 U/L of peroxidase is prepared and used as color-forming liquid. […] Reaction is carried out at 37° C. for 20 minutes and then the absorbancy of the solution is measured at 500 nm. The amount of the reacted choline chloride is calculated based on the measured value. The enzyme activity is expressed by "U" which is defined as the amount of enzyme which will decompose 1 μmole of choline in 1 minute under the above-described conditions.
Test [7] concerns choline oxidase derived from B. album KY 4319.
Protocol: An approximately 4 ml-reactor for measurement of oxygen absorption is kept at 37° C. and an oxygen electrode is inserted therein. Choline oxidase is dissolved in 0.05 mol/L Tris buffer having a pH of 8.0 to make up a concentration of 0.8 U/ml. […] The concentration of oxygen dissolved in the solution is recorded continuously by recorder while stirring the solution. Decrease in oxygen concentration for 5 minutes after the start of the reaction is calculated.
The same procedure as above is repeated except that sodium azide is not added (control).
Setting [8] is: choline chloride 0.5 g/dl (36 mmol/L) in medium.
[9] abbreviates: choline chloride 1.0 g/dl (72 mmol/L) in medium.
The mark [10] stands for this setting: choline chloride 5.0 g/dl (360 mmol/L) in medium.
The mark [11] stands for this setting: choline chloride 10.0 g/dl (720 mmol/L) in medium.

Counter-ions that a name gives are not always drawn. Like-named read-outs stand apart in the source and are kept apart here.

As to `CN(C)CCO` [2-dimethylaminoethanol, 2-dimethyl-aminoethanol], the “Substrate specificity (relative activity %)” value in test [1] worked out at 7.3%; in test [2], 8.5%.

In the case of `CNCCO` [2-methylaminoethanol, 2-methyl-aminoethanol], the “Substrate specificity (relative activity %)” value came out at 1.0% in test [1] and 0% in test [2].

On to `CC(=O)OCC[N+](C)(C)C.[Cl-]` [acetylcholine chloride], for which the “Substrate specificity (relative activity %)” value in test [1] and in test [2] was 0% throughout.

For `C[N+](C)(C)CC=O` [betaine aldehyde], the “oxygen consumed per 1 mol of substrate (concluded stoichiometry)” value in test [3] came to 1 mol. Also, the “[B]/[A] (O2 uptake / charged substrate)” value in test [3] (substrate 1.25 μmol) was found to be 0.88; in test [3] (substrate 2.50 μmol), 0.92; in test [3] (substrate 5.00 μmol) it was 0.93. Also, the “Amount of O2 uptake [B]” value in test [3] (substrate 1.25 μmol) is 1.10 µmol; in test [3] (substrate 2.50 μmol), 2.31 µmol; in test [3] (substrate 5.00 μmol) it was 4.67 µmol. For the same compound, the “hydrogen peroxide produced from 1 mol of substrate (concluded stoichiometry)” value in test [4] is given as 1 mol. For the same compound, the “[B']/[A'] (hydrogen peroxide produced / charged substrate)” value in test [4] (substrate 0.045 μmol) was 0.78; in test [4] (substrate 0.090 μmol), 0.93; in test [4] (substrate 0.180 μmol), 0.93. The “Amount of hydrogen peroxide [B']” value in test [4] (substrate 0.045 μmol) turned out to be 0.035 µmol; in test [4] (substrate 0.090 μmol) it was 0.084 µmol; in test [4] (substrate 0.180 μmol), 0.168 µmol.

For the compound `C[N+](C)(C)CC(=O)O` [betaine], the “Substrate specificity (relative activity %)” value in test [1] and in test [2] was 0% each time.

In the case of `C[N+](C)(C)CCO.[Cl-]` [choline chloride], the “Activity of choline oxidase” value in test [5] (choline chloride 0.1 g/dl (7.2 mmol/L) in medium) was 6.4 U/dl; in test [5] (setting [8]), 9.3 U/dl; in test [5] (setting [9]), 17.1 U/dl; in test [5] (choline chloride 2.0 g/dl (144 mmol/L) in medium) it was 17.5 U/dl; in test [5] (setting [10]), 12.8 U/dl; in test [5] (setting [11]) it was 6.7 U/dl. For the same compound, the “Activity of choline oxidase” value in test [6] (choline chloride 0.1 g/dl (7.2 mmol/L) in medium, 30° C. culture, supernatant of disrupted cells) was determined as 13.0 U/dl; in test [6] (setting [8]) it was 35.4 U/dl; in test [6] (setting [9]) it was 32.7 U/dl; in test [6] (setting [10]), 23.4 U/dl; in test [6] (setting [11]) it was 15.1 U/dl. The “Substrate specificity (relative activity %)” value in test [1] and in test [2] was 100% in each case. Besides, the “oxygen consumed per 1 mol of substrate (concluded stoichiometry)” value in test [3] was determined as 2 mol. The entries for the “[B]/[A] (O2 uptake / charged substrate)” value in test [3] (substrate 1.25 μmol), in test [3] (substrate 2.50 μmol) and in test [3] (substrate 5.00 μmol) were 1.87, 1.89 and 1.91, respectively. For the same compound, the entries for the “Amount of O2 uptake [B]” value in test [3] (substrate 1.25 μmol), in test [3] (substrate 2.50 μmol) and in test [3] (substrate 5.00 μmol) were 2.34 µmol, 4.72 µmol and 9.56 µmol, respectively. In addition, in test [3] (summary of Table 3), the “amount of oxygen consumed by 1 mol of substrate” value fell in the range of 1.87 to 1.91 mol. Also, the “hydrogen peroxide produced from 1 mol of substrate (concluded stoichiometry)” value in test [4] turned out to be 2 mol. For the same compound, the entries for the “[B']/[A'] (hydrogen peroxide produced / charged substrate)” value in test [4] (substrate 0.045 μmol), in test [4] (substrate 0.090 μmol) and in test [4] (substrate 0.180 μmol) were 1.80, 1.67 and 1.72, respectively. Further, the “Amount of hydrogen peroxide [B']” value in test [4] (substrate 0.045 μmol) was determined as 0.081 µmol; in test [4] (substrate 0.090 μmol), 0.150 µmol; in test [4] (substrate 0.180 μmol), 0.310 µmol. Also, in test [4] (summary of Table 4), the “amount of hydrogen peroxide produced from 1 mol of substrate” value lay in the range of 1.67 to 1.80 mol.

Regarding `NCCO` [ethanolamine hydrochloride], the “Substrate specificity (relative activity %)” value in test [1] and in test [2] was 0% throughout.

`NCC(=O)O` [glycine]: the “Substrate specificity (relative activity %)” value in test [1] and in test [2] was 0% throughout.

For the compound `CNCC(=O)O` [sarcosine], the “Substrate specificity (relative activity %)” value in test [1] and in test [2] was 0% in each case.

For the compound `[N-]=[N+]=[N-]` [sodium azide], the Inhibitor entry in test [7] is “Inhibitor”. Moreover, the “enzyme activity inhibited, compared with the control” value in test [7] (1.7×10^-3 mol/L sodium azide, 37° C., pH 8.0, 5 minutes) turned out to be 44.4%.
